The text below walks through data of PubChem BioAssay (NCI).

Holding throughout (assay): growth of human tumour cells (NCI), 48 h
Experiment [1] deals with SK-OV-3 ovarian.
Experiment [2] deals with U251 CNS.
Experiment [3] has as its system HL-60(TB) leukemia.
The subject of experiment [4] is MOLT-4 leukemia.
Experiment [5] has as its system M14 melanoma.
Experiment [6] has as its system SK-MEL-5 melanoma.
Experiment [7] concerns RXF 393 renal.
Experiment [8] concerns NCI-H23 lung.
Experiment [9] relates to SF-268 CNS.
Experiment [10] has as its system SF-539 CNS.

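Each compound was tested at five concentrations against cells in 96-well plates for 48 hours. GI50 marks 50% less growth. At the TGI there is no net growth.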 Where a SMILES comes first, the peptide text is derived from it. [ ]: non-standard residue; d: D form. The star is where a group is joined. Phe(4-NO2) = N[CH](Cc1ccc([N+](=O)[O-])cc1)C(=O)O; Boc = CC(C)(C)OC(=O)*; OBn = c1ccc(CO*)cc1

For the compound `Cn1c(=O)c2c(nc(NCCCCl)n2CC(=O)O)n(C)c1=O`, the TGI in experiment [1], in experiment [2], in experiment [3], in experiment [4], in [5] and in experiment [6] was above 100 µM throughout. The TGI in [7], in [8] and in [9] was above 100 µM in each case.
For `CCCCOC(=O)C(=O)C(CCC(=O)c1ccc(C)cc1)C(=O)C=C(C)C` (stereo unspecified), the TGI in [1], in [2], in experiment [3], in experiment [4], in experiment [5] and in [6] was above 100 µM in each case. In addition, the TGI in [10], in [7], in experiment [8] and in experiment [9] was above 100 µM each time.
On to `CC(C)Oc1c(-c2c(OC(C)C)c(=O)c2=O)c(=O)c1=O`, for which the TGI was above 100 µM in experiment [1]; above 59.9 µM in [2]; above 100 µM in experiment [3]; above 68.1 µM in experiment [4]; above 100 µM in experiment [5]; above 61.8 µM in experiment [6]. Also, the TGI in experiment [10] is above 100 µM; in experiment [7], above 78.5 µM; in [8], above 75.6 µM; in experiment [9], above 75.9 µM.
Consider `COC(=O)CCC(NC(=O)OC(C)(C)C)C(=O)NC(Cc1ccc([N+](=O)[O-])cc1)C(=O)NCC(=O)OCc1ccccc1` (stereo unspecified) (Boc-Glu(OMe)-[Phe(4-NO2)]-Gly-OBn; configuration not given here), for which the TGI in experiment [1], in experiment [2], in experiment [3], in experiment [4], in [5] and in experiment [6] was above 100 µM throughout. The TGI in [10] was 63.6 µM; in experiment [7], above 72.8 µM; in experiment [8], above 100 µM; in experiment [9], above 100 µM.
For `COC1=CC(=O)c2ccccc2C1(CCC=C(C)C)C1=NC(C)(C)CO1` (stereo unspecified), the TGI was above 100 µM in experiment [1]; above 100 µM in [2]; 62.9 µM in experiment [3]; above 100 µM in experiment [4]; above 100 µM in experiment [5]; above 100 µM in experiment [6]. Also, the TGI in [10], in experiment [7], in experiment [8] and in [9] was above 100 µM each time.
Consider `O=C(CSc1nc2ccccc2[nH]1)Nc1ccc(-c2nc3ccccc3s2)c(Cl)c1`, for which the GI50 in [1] is 2.72 µM; in experiment [2] it was 1.85 µM; in experiment [3] it was above 100 µM; in experiment [4], above 100 µM; in [6] it was 3.12 µM; in [10], 1.7 µM. In addition, the figures for the GI50 in [7], in experiment [8] and in [9] were 2.66 µM, 1.88 µM and 1.88 µM, respectively. For the same compound, the TGI in experiment [1] was 12 µM; in experiment [2], 4.33 µM; in [3], above 100 µM; in experiment [4], above 100 µM; in experiment [6] it was above 100 µM; in [10], 3.25 µM. The TGI in experiment [7] stood at 8.85 µM; in experiment [8], 4.27 µM; in experiment [9], 4.37 µM.
Consider `COc1cc2c3cc1Oc1c(O)c(OC)cc4c1[C@H](Cc1ccc(cc1)Oc1cc(ccc1O)C[C@H]3N(C)CC2)N(C)CC4`, for which the TGI was 79.3 µM in [1]; 28 µM in [2]; 33.9 µM in experiment [3]; above 43.8 µM in experiment [4]; 5.62 µM in experiment [5]; 16.6 µM in experiment [6]. Moreover, the TGI came to 10.9 µM in experiment [10], 13.9 µM in [7], 51.8 µM in experiment [8] and 47.3 µM in experiment [9].
Consider `CCN(CC)Cc1nc2sc3c(c2c(=O)n1-c1ccccc1)CCCC3`, for which the TGI in experiment [1] is 83.3 µM; in [2] it was 31.3 µM; in [3], above 100 µM; in experiment [4] it was 56.7 µM; in experiment [5], 30.2 µM; in experiment [6] it was 31.7 µM. The figures for the TGI in [7], in experiment [8] and in experiment [9] were 37.6 µM, 81.2 µM and 50.3 µM, respectively.
As to `CCOC(=O)/C(O)=C1\C(=O)N(C)C(=O)C1c1ccc(OC)c(OC)c1` (stereo unspecified), the TGI in [1], in experiment [2], in [3], in experiment [4], in [6] and in [10] was above 100 µM in each case. The TGI in [7], in experiment [8] and in experiment [9] was above 100 µM in each case.
`CCOC(C[Se]CC(OCC)OCC)OCC`: the TGI in experiment [1] was above 100 µM; in experiment [2], 38.4 µM; in experiment [3] it was 76.5 µM; in experiment [4] it was above 100 µM; in experiment [5] it was above 100 µM; in [6], 29.6 µM. The values for the TGI in experiment [10], in experiment [7] and in experiment [8] were 62.4 µM, 85.8 µM and above 100 µM, respectively.
Take `CC(C)(CO)CNc1cc(=O)[nH]c(N)n1`: the TGI in [1], in experiment [2], in experiment [3], in experiment [4], in [5] and in experiment [6] was above 100 µM throughout. Also, the TGI in experiment [7], in experiment [8] and in experiment [9] was above 100 µM in each case.
`Cc1cc2c(cc1Cl)Sc1nnc(Nc3ccccc3)n1S2(=O)=O`: the TGI in experiment [2] amounted to 19.1 µM; in experiment [3], 16.4 µM; in experiment [4], 13.5 µM; in experiment [5], 60.1 µM; in experiment [6], 53.8 µM; in experiment [10], 14.2 µM. Also, the figures for the TGI in experiment [7], in experiment [8] and in [9] were 24.2 µM, 15.9 µM and 11 µM, respectively.
Take `COc1ccc2nc3cc(Cl)ccc3c(NCCCCCC(=O)NC(COc3cnc4c(ccc5cccnc54)c3)COc3cnc4c(ccc5cccnc54)c3)c2c1`: the TGI in experiment [1] was above 100 µM; in experiment [2] it was 21.8 µM; in [3] it was 15.1 µM; in experiment [4], 11.6 µM; in experiment [5], above 100 µM; in [10] it was 53.5 µM. Moreover, the TGI in experiment [7] was 30.2 µM; in experiment [8], above 100 µM; in [9], 40.2 µM.
